In publication PMC12040169 (PLOS Biology, 2025):

Assay: in vitro
Conditions: human, hela cells, % viability

Structure (SMILES)	viability at 28.5 h, 10 µM
COc1ccccc1-c1cnc2[nH]c(=O)n(CC3CCOCC3)c2n1 [CBK064286]	100%
O=c1[nH]c2ncc(-c3ccsc3)nc2n1CC1CCOCC1 [CBK064293]	86.3%
CN(C)CCn1c(=O)[nH]c2ncc(-c3ccoc3)nc21 [CBK064294]	92.6%
O=C(c1ccc(-c2cnc3[nH]c(=O)n(CCc4cccnc4)c3n2)cc1)N1CCOCC1 [CBK064334]	99.1%
COCCCn1c(=O)[nH]c2ncc(-c3cc(C(C)C)ccc3OC)nc21 [CBK064351]	82.8%
CC(C)Cn1c(=O)[nH]c2ncc(-c3ccco3)nc21 [CBK064353]	91.9%
C[C@H](c1ccccc1)n1c(=O)[nH]c2ncc(-c3ccc(N(C)C)cc3)nc21 [CBK064367]	102%
CCCC/C=C/c1cnc2[nH]c(=O)n(Cc3cccs3)c2n1 [CBK064373]	83.6%
CC(=O)c1ccc(-c2cnc3[nH]c(=O)n([C@H](C)c4ccccc4)c3n2)s1 [CBK064375]	98.2%
C[C@H](c1ccccc1)n1c(=O)[nH]c2ncc(-c3ccc(C(N)=O)cc3)nc21 [CBK064377]	111%
C[C@H](c1ccccc1)n1c(=O)[nH]c2ncc(-c3ccco3)nc21 [CBK064415]	98.1%
COCCCn1c(=O)[nH]c2ncc(-c3cccc(NC(C)=O)c3)nc21 [CBK064433]	97.5%
O=c1[nH]c2ncc(-c3cccc(Br)c3)nc2n1CCc1cccnc1 [CBK064457]	103%
COc1cc(Cn2c(=O)[nH]c3ncc(-c4ccco4)nc32)cc(OC)c1OC [CBK064461]	106%
O=c1[nH]c2ncc(-c3ccco3)nc2n1CCc1cccnc1 [CBK064494]	94.7%
COc1ccc(C(C)C)cc1-c1cnc2[nH]c(=O)n([C@@H](CO)C(C)C)c2n1 [CBK064495]	90.3%
CCCC/C=C/c1cnc2[nH]c(=O)n(CCc3cccnc3)c2n1 [CBK064496]	92.7%
COCCCn1c(=O)[nH]c2ncc(-c3cccc(OC)c3)nc21 [CBK064519]	108%
O=C(c1ccc(-c2cnc3[nH]c(=O)n(C4CCCCC4)c3n2)cc1)N1CCOCC1 [CBK064566]	106%
CN(C)c1cccc(-c2cnc3[nH]c(=O)n(CCc4ccncc4)c3n2)c1 [CBK064628]	91.1%
O=c1[nH]c2ncc(-c3ccoc3)nc2n1Cc1ccco1 [CBK064639]	102%

Structure (SMILES)	viability at 28.5 h, 10 µM
O=c1[nH]c2ncc(-c3ccoc3)nc2n1Cc1cccs1 [CBK064647]	90.3%
O=c1[nH]c2ncc(-c3ccsc3)nc2n1-c1ccc2[nH]ccc2c1 [CBK064650]	108%
CN1CCN(C(=O)c2ccc(-c3cnc4[nH]c(=O)n(Cc5ccncc5)c4n3)cc2)CC1 [CBK064679]	101%
CS(=O)(=O)c1ccc(-c2cnc3[nH]c(=O)n(-c4ccc5[nH]ccc5c4)c3n2)cc1 [CBK064691]	96.6%
CC(C)(CO)Cn1c(=O)[nH]c2ncc(-c3cccnc3)nc21 [CBK064697]	107%
CS(=O)(=O)Nc1cccc(-c2cnc3[nH]c(=O)n(Cc4cccs4)c3n2)c1 [CBK064708]	91%
C[C@H](c1ccccc1)n1c(=O)[nH]c2ncc(-c3cncc4ccccc34)nc21 [CBK064709]	90.4%
C[C@@H](c1ccccc1)n1c(=O)[nH]c2ncc(-c3cccc4ccccc34)nc21 [CBK064710]	97%
COc1ccc(C(C)C)cc1-c1cnc2[nH]c(=O)n(-c3ccc4[nH]ccc4c3)c2n1 [CBK064714]	90.7%
COc1ccc(-c2cnc3[nH]c(=O)n(Cc4cccs4)c3n2)c(OC)c1OC [CBK064716]	97.2%
C[C@@H](c1ccccc1)n1c(=O)[nH]c2ncc(-c3cncc4ccccc34)nc21 [CBK064726]	73.9%
CC(C)(CO)Cn1c(=O)[nH]c2ncc(-c3ccc(F)c(Cl)c3)nc21 [CBK064737]	102%
CC(C)[C@@H](CO)n1c(=O)[nH]c2ncc(-c3ccc(N4CCOCC4)cc3)nc21 [CBK064770]	110%
COc1ccc(-c2cnc3[nH]c(=O)n([C@@H](CO)C(C)C)c3n2)c(OC)c1OC [CBK064774]	94.3%
CC(C)(CO)Cn1c(=O)[nH]c2ncc(-c3ccc(C(N)=O)cc3)nc21 [CBK064787]	88.5%
O=c1[nH]c2ncc(-c3ccccc3)nc2n1CCCN1CCOCC1 [CBK064805]	111%
CN(C)C(=O)c1ccc(-c2cnc3[nH]c(=O)n(CCCN4CCOCC4)c3n2)cc1 [CBK064828]	108%
COc1ccc(-c2cnc3[nH]c(=O)n(CC(C)(C)CO)c3n2)c(OC)c1OC [CBK064833]	91.8%
O=c1[nH]c2ncc(-c3cccc4ncccc34)nc2n1C1CCCCC1 [CBK064861]	109%
O=C(NC1CC1)c1ccc(-c2cnc3[nH]c(=O)n(CC4CCOCC4)c3n2)cc1 [CBK064890]	85.2%
COc1ncc(-c2cnc3[nH]c(=O)n(CC4CCOCC4)c3n2)cn1 [CBK064898]	98.1%

Structure (SMILES)	viability at 28.5 h, 10 µM
CN1CCN(c2ccc(-c3cnc4[nH]c(=O)n(C5CC5)c4n3)cc2)CC1 [CBK064899]	89.7%
COc1ccc(C(C)C)cc1-c1cnc2[nH]c(=O)n(C3CC3)c2n1 [CBK064915]	91.2%
O=C(NC1CC1)c1ccc(-c2cnc3[nH]c(=O)n(-c4ccc5[nH]ccc5c4)c3n2)cc1 [CBK064916]	103%
O=c1[nH]c2ncc(-c3ccc4c(c3)OCO4)nc2n1C1CC1 [CBK064922]	98.5%
COCCCn1c(=O)[nH]c2ncc(-c3cccnc3)nc21 [CBK064929]	104%
NS(=O)(=O)c1ccc(Cn2c(=O)[nH]c3ncc(-c4ccco4)nc32)cc1 [CBK064948]	96.8%
CN(C)CCNC(=O)c1ccc(-c2cnc3[nH]c(=O)n(C4CCCC4)c3n2)cc1 [CBK064957]	110%
COc1ccc(C(C)C)cc1-c1cnc2[nH]c(=O)n([C@H](CO)C(C)C)c2n1 [CBK064962]	96.2%
CCCC/C=C/c1cnc2[nH]c(=O)n([C@H](CO)C(C)C)c2n1 [CBK064970]	95%
O=c1[nH]c2ncc(-c3ccncc3)nc2n1C1CCCC1 [CBK064972]	116%
O=c1[nH]c2ncc(-c3ccoc3)nc2n1C1CCOCC1 [CBK064973]	119%
COc1cncc(-c2cnc3[nH]c(=O)n([C@H](CO)C(C)C)c3n2)c1 [CBK064977]	107%
C[C@H](c1ccccc1)n1c(=O)[nH]c2ncc(-c3cccc(/C=C/C(=O)O)c3)nc21 [CBK064983]	83.4%
CC(C)[C@H](CO)n1c(=O)[nH]c2ncc(-c3cccc4ccccc34)nc21 [CBK064985]	104%
CC(C)[C@H](CO)n1c(=O)[nH]c2ncc(-c3cccc(CO)c3)nc21 [CBK065001]	96.1%
COc1ccc(-c2cnc3[nH]c(=O)n([C@H](CO)C(C)C)c3n2)c(OC)c1OC [CBK065008]	99.1%
CC(C)Cn1c(=O)[nH]c2ncc(-c3ccc(O)cc3)nc21 [CBK065011]	105%
COc1ccc(-n2c(=O)[nH]c3ncc(-c4ccco4)nc32)c(C)c1 [CBK065019]	101%
O=c1[nH]c2ncc(-c3cccc(Br)c3)nc2n1Cc1ccccn1 [CBK065020]	101%
CN(C)CCn1c(=O)[nH]c2ncc(-c3cc(C(F)(F)F)cc(C(F)(F)F)c3)nc21 [CBK065028]	112%
O=C(NCCO)c1cccc(-c2cnc3[nH]c(=O)n(Cc4ccccn4)c3n2)c1 [CBK065034]	96.5%

Structure (SMILES)	viability at 28.5 h, 10 µM
COc1cccc(-c2cnc3[nH]c(=O)n(CCCO)c3n2)c1 [CBK065036]	93.3%
O=C(NC1CCCC1)c1ccc(-c2cnc3[nH]c(=O)n(Cc4ccc(Cl)cc4)c3n2)cc1 [CBK065039]	94.7%
O=C(NCCO)c1ccc(-c2cnc3[nH]c(=O)n(C4CCOCC4)c3n2)cc1 [CBK065041]	108%
COCCCn1c(=O)[nH]c2ncc(-c3cccc(C(=O)NCCO)c3)nc21 [CBK065042]	118%
CC(C)[C@H](CO)n1c(=O)[nH]c2ncc(-c3cccc(/C=C/C(=O)O)c3)nc21 [CBK065051]	92.5%
CS(=O)(=O)Nc1cccc(-c2cnc3[nH]c(=O)n(Cc4ccc(S(C)(=O)=O)cc4)c3n2)c1 [CBK065061]	98.6%
CN(C)CCNC(=O)c1cccc(-c2cnc3[nH]c(=O)n(Cc4ccc(S(C)(=O)=O)cc4)c3n2)c1 [CBK065069]	109%
O=C(O)/C=C/c1cccc(-c2cnc3[nH]c(=O)n(C4CC4)c3n2)c1 [CBK065091]	93.5%
O=c1[nH]c2ncc(-c3cncc4ccccc34)nc2n1Cc1ccccc1 [CBK065113]	99.1%
COc1ncc(-c2cncc(N3CCN(c4ccc(OC)c(OC)c4)CC3)n2)c(OC)n1 [CBK065169]	89.5%
COc1ccc(C(C)C)cc1-c1cncc(NCCc2c[nH]c3ccccc23)n1 [CBK065174]	96.5%
COc1cc(Nc2cncc(-c3ccc4ccccc4c3)n2)cc(OC)c1OC [CBK065176]	61.7%
c1cncc(-c2cncc(NCCc3c[nH]c4ccccc34)n2)c1 [CBK065186]	89.7%
CC(C)c1ccc(-c2cncc(NCCCN3CCOCC3)n2)cc1 [CBK065196]	97.7%
COc1ccc(C(C)C)cc1-c1cncc(NCC(C)(C)CO)n1 [CBK065206]	106%
COc1ncc(-c2cncc(NCc3cccc(Cl)c3)n2)c(OC)n1 [CBK065211]	106%
COc1cc(-c2cncc(Nc3cccc(C(F)(F)F)c3)n2)cc(OC)c1OC [CBK065213]	120%
CN(C)CCNC(=O)c1cccc(-c2cncc(Nc3cccc(Cl)c3)n2)c1 [CBK065229]	104%
Clc1ccc(Nc2cncc(-c3cccnc3)n2)cc1 [CBK065234]	105%
COc1cc(-c2cncc(NCc3ccco3)n2)cc(OC)c1OC [CBK065259]	99.9%
